Measured values taken from patent US10023593B2, “ALK kinase inhibitor, and preparation method and uses thereof” (BEIJING PEARL BIOTECHNOLOGY LIMITED LIABILITY COMPANY, priority 2014, dated 2018).

Tests used:
[1] = test system: Karpas-299 cell line; assay: CellTiter-Glo cell proliferation inhibition on Karpas-299 cell line; type: cell-based; conditions: Homo sapiens, 96 h, Karpas-299 cells, 5000 cells/well, 4 days drug treatment
Experimental: 4. Cell Proliferation Inhibitory Activities of the Compounds of the Present Invention on Karpas-299 Cell Line
? experimental method ? CellTiter-Glo® Luminescent Cell Viability Assay kit from Promega company was used to detect cell proliferation inhibitory activities of the compounds on Karpas-299 cell line.
? instrument ? Envision 2104 plate reader from PerKinElmer company; Vi-Cell XR cell counter from Beckman Counter company; MCO-18AIC CO2 incubator from SANYO company.
? experiment material ? CellTiter-Glo® Luminescent Cell Viability Assay Kit (Promega company, catalog No. G7573); Karpas-299 cell line (DSMZ, catalog No. ACC31); RPMI-1640 medium (HyClone company, catalog No. SH30809.01B); fetal bovine serum (FBS) (Gibco company, catalog No. 10099-141); PBS (HyClone company, catalog No. SH30256.01B); 96 wells cell culture plate (Corning company, catalog No. 3610); DMSO (AMRESCO company, catalog No. 0231); 96 wells plates (for diluting compounds) (CITOTEST company, catalog No. Ref36020096D);
? experimental condition ? Karpas-299 cells in exponential growth phase were collected and viable cells were counted by Vi-Cell XR cell counter. Cell suspension was adjusted to 62500 cells/ml with culture medium (RPMI-1640+10% FBS). 80 μl cell suspension was added into each well of 96 wells cell culture plate so that so that the final cell number of Karpas-299 cells was 5000 cells/well. The cells were cultivated in an incubator with an atmosphere of 37° C., 5% CO2 and 95% humidity for 2 hours and then each well was added with 20 μl compounds in RPMI-1640 medium solution (the final concentration of DMSO was 0.5%). 4 days after drug treatment, each well was added with 50 μl CellTiter-Glo solution which was previously thawed and equilibrated to room temperature, and mixed for 2 minutes with microplate shaker. After placing at room temperature for 10 minutes, luminescence reading value was measured with PerkinElmer Envision 2104 plate reader and the data was analyzed.
? tested samples ? Compounds of the examples.
Luminescence value of DMSO solvent control (Vvehicle control, which is the mean luminescence value from DMSO solvent control group)
Tested luminescence value (Vsample, which is the luminescence value from given concentration of compounds group) Inhibition rate (%)=(1−Vsample/Vvehicle control)×100
? data processing ? IC50 of compounds was calculated by using XLfit program in Excel.

[2] = target: T1, Wild Type ALK kinase (Homo sapiens, UniProt Q9UM73); assay: HTRF KinEASE-TK assay, inhibitory activity on wild type ALK kinase; type: biochemical; conditions: wild type ALK 1 ng/μl, substrate 1 μM, 30° C. 35 minutes, read-out: Inhibition on ALK kinases (wildtype), IC50
T1 construct: purchased Sino-US Crown Bioscience, Inc. batch number ALK 20110607
T1 sequence (Q9UM73 19-1620): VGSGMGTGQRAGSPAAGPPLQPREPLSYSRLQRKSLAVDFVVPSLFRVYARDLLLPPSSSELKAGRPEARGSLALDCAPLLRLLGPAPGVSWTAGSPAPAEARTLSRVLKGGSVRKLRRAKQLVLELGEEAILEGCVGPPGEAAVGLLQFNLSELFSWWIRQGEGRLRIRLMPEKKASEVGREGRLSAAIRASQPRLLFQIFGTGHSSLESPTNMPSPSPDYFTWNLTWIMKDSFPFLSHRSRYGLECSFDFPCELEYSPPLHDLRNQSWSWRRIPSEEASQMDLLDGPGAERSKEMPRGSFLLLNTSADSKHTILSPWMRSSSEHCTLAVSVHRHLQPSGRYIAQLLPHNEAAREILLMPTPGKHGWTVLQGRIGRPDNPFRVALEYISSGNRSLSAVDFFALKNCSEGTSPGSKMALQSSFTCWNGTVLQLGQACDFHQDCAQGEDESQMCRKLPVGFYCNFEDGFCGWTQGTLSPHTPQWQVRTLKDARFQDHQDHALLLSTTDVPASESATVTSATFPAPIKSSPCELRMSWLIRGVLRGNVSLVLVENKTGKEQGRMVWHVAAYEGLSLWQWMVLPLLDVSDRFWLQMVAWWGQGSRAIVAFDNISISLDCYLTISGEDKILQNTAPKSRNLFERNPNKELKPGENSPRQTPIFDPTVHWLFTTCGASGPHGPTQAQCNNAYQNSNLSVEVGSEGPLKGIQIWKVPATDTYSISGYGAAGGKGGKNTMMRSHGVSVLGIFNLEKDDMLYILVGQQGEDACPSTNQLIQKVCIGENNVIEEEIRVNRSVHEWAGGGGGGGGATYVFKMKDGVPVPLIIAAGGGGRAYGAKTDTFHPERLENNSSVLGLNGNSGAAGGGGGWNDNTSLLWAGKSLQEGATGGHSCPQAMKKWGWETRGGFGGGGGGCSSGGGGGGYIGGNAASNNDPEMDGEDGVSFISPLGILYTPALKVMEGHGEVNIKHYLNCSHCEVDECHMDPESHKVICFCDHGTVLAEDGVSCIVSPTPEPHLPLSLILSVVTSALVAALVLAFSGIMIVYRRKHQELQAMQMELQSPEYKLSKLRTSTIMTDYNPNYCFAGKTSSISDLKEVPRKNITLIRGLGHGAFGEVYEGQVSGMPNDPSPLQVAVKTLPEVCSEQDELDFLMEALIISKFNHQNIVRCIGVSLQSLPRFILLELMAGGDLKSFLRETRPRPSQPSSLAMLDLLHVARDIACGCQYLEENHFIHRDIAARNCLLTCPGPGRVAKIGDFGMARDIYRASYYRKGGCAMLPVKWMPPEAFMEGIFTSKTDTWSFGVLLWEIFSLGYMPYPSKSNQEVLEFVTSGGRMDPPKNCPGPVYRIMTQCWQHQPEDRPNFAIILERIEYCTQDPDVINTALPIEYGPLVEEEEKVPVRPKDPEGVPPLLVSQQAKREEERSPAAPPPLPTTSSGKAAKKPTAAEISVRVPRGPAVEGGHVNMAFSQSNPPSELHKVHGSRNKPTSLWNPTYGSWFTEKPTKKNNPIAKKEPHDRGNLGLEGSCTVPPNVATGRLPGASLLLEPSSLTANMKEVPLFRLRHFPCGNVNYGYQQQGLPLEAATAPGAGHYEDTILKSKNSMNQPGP
In short: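 ALK kinase at 1 ng/μl and substrate at 1 μM were reacted with compound (1% DMSO) in buffer with 5 mM MgCl2 and 1 mM DTT for 35 min at 30 °C. HTRF detection used the 665/615 ratio, normalised to no-compound wells and to 10.4 μM LDK-378 wells. IC50 came from a concentration-response fit.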

| Compound | IC50 [1] | IC50 [2] |
| --- | --- | --- |
| Cc1cc(Nc2ncc(Cl)c(Nc3cn(C)nc3S(=O)(=O)C(C)C)n2)c(OC(C)C)cc1C1CNC1 [Final product 4] | 60 nM | 4 nM |
| Cc1cc(Nc2ncc(Cl)c(Nc3cn(C4CC4)nc3S(=O)(=O)C(C)C)n2)c(OC(C)C)cc1C1CCNCC1 [Final product 5] | 37 nM | 6 nM |
| Cc1cc(Nc2ncc(Cl)c(Nc3cn(C)nc3S(=O)(=O)CC(C)C)n2)c(OC(C)C)cc1C1CCNCC1 [Final product 6] | 24 nM | 3 nM |
| CCC(C)S(=O)(=O)c1nn(C)cc1Nc1nc(Nc2cc(C)c(C3CCNCC3)cc2OC(C)C)ncc1Cl (centres unmarked) [Final product 7] | 21 nM | 8 nM |
| Cc1cc(Nc2ncc(Cl)c(Nc3cn(C)nc3S(=O)(=O)C(C)C)n2)c(OC(CF)CF)cc1C1CCNCC1 [Final product 8] | 67 nM | 9 nM |
| CC(C)S(=O)(=O)c1nn(C)cc1Nc1nc(Nc2ccc(C3CCNCC3)cc2OC(F)(F)F)ncc1Cl [Final product 9] | 119 nM | 16 nM |
| Cc1cc(Nc2ncc(Cl)c(Nc3cn(C)nc3S(=O)(=O)C(C)C)n2)c(OC(F)(F)F)cc1C1CCNCC1 [Final product 10] | 20 nM | 7 nM |
| Cc1cc(Nc2ncc(Cl)c(Nc3cn(C)nc3S(=O)(=O)C(C)C)n2)c(C(F)(F)F)cc1C1CCNCC1 [Final product 11] | 61 nM | 22 nM |
| Cc1cc(Nc2ncc(Cl)c(Nc3cn(C)nc3S(=O)(=O)C(C)C)n2)c(OCC2CC2)cc1C1CCNCC1 [Final product 12] | 43 nM | 10 nM |
| CC(C)S(=O)(=O)c1nn(C)cc1Nc1nc(Nc2ccc(C3CCNCC3)cc2OC2CC2)ncc1Cl [Final product 13] | 7 nM | 3 nM |
| CC(C)S(=O)(=O)c1nn(C)cc1Nc1nc(Nc2ccc(C3=CCNCC3)cc2OC2CC2)ncc1Cl [Final product 14] | 19 nM | 4 nM |
| CC(C)S(=O)(=O)c1nn(C)cc1Nc1nc(Nc2ccc(C3CCNC3)cc2OC2CC2)ncc1Cl (centres unmarked) [Final product 15] | 9 nM | 3 nM |
| CC(C)S(=O)(=O)c1nn(C2CC2)cc1Nc1nc(Nc2ccc(C3CCNCC3)cc2OC2CC2)ncc1Cl [Final product 16] | 8 nM | 4 nM |
| CC(C)CS(=O)(=O)c1nn(C)cc1Nc1nc(Nc2ccc(C3CCNCC3)cc2OC2CC2)ncc1Cl [Final product 17] | 36 nM | 11 nM |
| CC(C)CS(=O)(=O)c1nn(C)cc1Nc1nc(Nc2ccc(C3CCNC3)cc2OC2CC2)ncc1Cl (centres unmarked) [Final product 18] | 28 nM | 2 nM |
| CC(C)S(=O)(=O)c1nn(C)cc1Nc1nc(Nc2cc(F)c(C3CCNC3)cc2OC2CC2)ncc1Cl (centres unmarked) [Final product 20] | 56 nM | 9 nM |
| CC(C)S(=O)(=O)c1nn(C2CC2)cc1Nc1nc(Nc2cc(F)c(C3CCNCC3)cc2OC2CC2)ncc1Cl [Final product 21] | 10 nM | 1 nM |
| CC(C)S(=O)(=O)c1nn(C)cc1Nc1nc(Nc2cc(Cl)c(C3CCNCC3)cc2OC2CC2)ncc1Cl [Final product 22] | 14 nM | 2 nM |
| CC(C)S(=O)(=O)c1nn(C2CC2)cc1Nc1nc(Nc2cc(Cl)c(C3CCNCC3)cc2OC2CC2)ncc1Cl [Final product 23] | 38 nM | 4 nM |
| Cc1cc(Nc2ncc(Cl)c(Nc3cn(C)nc3S(=O)(=O)C(C)C)n2)c(OC2CC2)cc1C1CCNCC1 [Final product 24] | 9 nM | 2 nM |
| Cc1cc(Nc2ncc(Cl)c(Nc3cn(C)nc3S(=O)(=O)C(C)C)n2)c(OC2CC2)cc1C1=CCNCC1 [Final product 25] | 12 nM | 2 nM |
| Cc1cc(Nc2ncc(Cl)c(Nc3cn(C)nc3S(=O)(=O)C(C)C)n2)c(OC2CC2)cc1C1CCNC1 (centres unmarked) [Final product 26] | 16 nM | 5 nM |
| Cc1cc(Nc2ncc(Cl)c(Nc3cn(C4CC4)nc3S(=O)(=O)C(C)C)n2)c(OC2CC2)cc1C1CCNCC1 [Final product 27] | 19 nM | 3 nM |

| Compound | IC50 [1] | IC50 [2] |
| --- | --- | --- |
| Cc1cc(Nc2ncc(Cl)c(Nc3cn(C)nc3S(=O)(=O)CC(C)C)n2)c(OC2CC2)cc1C1CCNCC1 [Final product 28] | 19 nM | 9 nM |
| CC(C)S(=O)(=O)c1nn(C)cc1Nc1nc(Nc2cc(C#N)c(C3CCNCC3)cc2OC2CC2)ncc1Cl [Final product 29] | 35 nM | 4 nM |
| CC(C)S(=O)(=O)c1nn(C)cc1Nc1nc(Nc2ccc(C3CCN(C)CC3)cc2OC(F)(F)F)ncc1Cl [Final product 30] | 25 nM | 7 nM |
| Cc1cc(Nc2ncc(Cl)c(Nc3cn(C)nc3S(=O)(=O)C(C)C)n2)c(OC(F)(F)F)cc1C1CCN(C)CC1 [Final product 31] | 20 nM | 6 nM |
| Cc1cc(Nc2ncc(Cl)c(Nc3cn(C)nc3S(=O)(=O)C(C)C)n2)c(C(F)(F)F)cc1C1CCN(C)CC1 [Final product 32] | 74 nM | 22 nM |
| Cc1cc(Nc2ncc(Cl)c(Nc3cn(C)nc3S(=O)(=O)C(C)C)n2)c(OC(CF)CF)cc1C1CCN(C)CC1 [Final product 34] | 62 nM | 10 nM |
| Cc1cc(Nc2ncc(Cl)c(Nc3cn(C)nc3S(=O)(=O)CC(C)C)n2)c(OC(C)C)cc1C1CN(C)C1 [Final product 36] | 62 nM | 8 nM |
| Cc1cc(Nc2ncc(Cl)c(Nc3cn(C)nc3S(=O)(=O)C(C)C)n2)c(OC(C)C)cc1C1CCN(C)C1 (centres unmarked) [Final product 37] | 11 nM | 7 nM |
| CC(C)S(=O)(=O)c1nn(C2CC2)cc1Nc1nc(Nc2ccc(C3CCN(C)CC3)cc2OC(F)(F)F)ncc1Cl [Final product 38] | 22 nM | 11 nM |
| Cc1cc(Nc2ncc(Cl)c(Nc3cn(C)nc3S(=O)(=O)C(C)C)n2)c(OCC2CC2)cc1C1CCN(C)CC1 [Final product 39] | 74 nM | 15 nM |
| CC(C)S(=O)(=O)c1nn(C)cc1Nc1nc(Nc2ccc(C3CCN(C)CC3)cc2OC2CC2)ncc1Cl [Final product 40] | 7 nM | 3 nM |
| CC(C)S(=O)(=O)c1nn(C)cc1Nc1nc(Nc2ccc(C3CCN(C)C3)cc2OC2CC2)ncc1Cl (centres unmarked) [Final product 41] | 4 nM | 1 nM |
| CC(C)S(=O)(=O)c1nn(C2CC2)cc1Nc1nc(Nc2ccc(C3CCN(C)CC3)cc2OC2CC2)ncc1Cl [Final product 42] | 3 nM | 1 nM |
| CC(C)CS(=O)(=O)c1nn(C)cc1Nc1nc(Nc2ccc(C3CCN(C)CC3)cc2OC2CC2)ncc1Cl [Final product 43] | 26 nM | 5 nM |
| CC(C)S(=O)(=O)c1nn(C)cc1Nc1nc(Nc2cc(F)c(C3CCN(C)C3)cc2OC2CC2)ncc1Cl (centres unmarked) [Final product 45] | 19 nM | 4 nM |
| CC(C)S(=O)(=O)c1nn(C2CC2)cc1Nc1nc(Nc2cc(F)c(C3CCN(C)CC3)cc2OC2CC2)ncc1Cl [Final product 46] |  | 2 nM |
| CC(C)S(=O)(=O)c1nn(C)cc1Nc1nc(Nc2cc(Cl)c(C3CCN(C)CC3)cc2OC2CC2)ncc1Cl [Final product 47] | 15 nM | 4 nM |
| CC(C)S(=O)(=O)c1nn(C2CC2)cc1Nc1nc(Nc2cc(Cl)c(C3CCN(C)CC3)cc2OC2CC2)ncc1Cl [Final product 48] | 41 nM | 2 nM |
| CC(C)S(=O)(=O)c1nn(C)cc1Nc1nc(Nc2cc(C#N)c(C3CCN(C)CC3)cc2OC2CC2)ncc1Cl [Final product 49] | 100 nM | 8 nM |
| Cc1cc(Nc2ncc(Cl)c(Nc3cn(C)nc3S(=O)(=O)C(C)C)n2)c(OC2CC2)cc1C1=CCN(C)CC1 [Final product 50] | 11 nM | 5 nM |
| Cc1cc(Nc2ncc(Cl)c(Nc3cn(C)nc3S(=O)(=O)C(C)C)n2)c(OC2CC2)cc1C1CC(C)N(C)C(C)C1 (centres unmarked) [Final product 95] | 4 nM | 2 nM |
| Cc1cc(Nc2ncc(Cl)c(Nc3cn(C)nc3S(=O)(=O)C(C)C)n2)c(OC2CC2)cc1C1CCOCC1 [Final product 107] | 18 nM | 9 nM |
